Results from patent US20250248979A1, “NOVEL GPX4 INHIBITORS AND USES THEREOF” (THE TRUSTEES OF COLUMBIA UNIVERSITY IN THE CITY OF NEW YORK, priority 2022, published 2025).

biological target: T1, GPX4 (Homo sapiens, UniProt P36969); experiment: GPX4 activity assay in cell lysates (NADPH-coupled); assay type: biochemical; set-up: endogenous in cells; host or cells: A-673 cell lysate; settings: not given
T1 sequence (P36969 1-170 isoform P36969-2): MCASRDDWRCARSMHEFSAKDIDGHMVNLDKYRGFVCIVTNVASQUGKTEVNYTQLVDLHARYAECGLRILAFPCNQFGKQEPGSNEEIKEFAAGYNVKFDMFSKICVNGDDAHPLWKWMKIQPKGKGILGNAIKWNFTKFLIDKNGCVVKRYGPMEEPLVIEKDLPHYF
Experimental: Determination of GPX4 activity in cell lysates was performed as previously described by Roveri et al. 1994 with minor modifications. Briefly, the assay measures the consumption of NADPH, which has a characteristic absorbance at 340 nm, over time as a proxy for GPX4 activity. The rationale for this is that as GPX4 reduces phospholipid hydroperoxides, it oxidizes glutathione, which is then regenerated by glutathione reductase at the expense of NADPH. NADPH is added to the assay in excess such that the reduction of oxidized glutathione is not the rate-limiting reaction in the assay. Thus, the resulting reduction in NADPH absorbance over time reflects GPX4 activity.
The GPX4-specific substrate phosphatidylcholine hydroperoxide (PCOOH) was prepared by enzymatic hydroperoxidation. Specifically, 0.3 mM phosphatidylcholines (Sigma-Aldrich) were incubated with 0.7 mg soybean lipoxidase type IV (Sigma-Aldrich) in 22 mL of 0.2 M Tris-HCl pH 8.8 with 3 mM sodium deoxycholate at room temperature under continuous stirring for 30 minutes. A Sep-Pak C18 cartridge (Waters-Millipore) was pre-washed with methanol and equilibrated with water, then the substrate mixture was loaded. The column was washed with 10 volumes of water and PCOOH was eluted with 2 mL of methanol.
To prepare the cell lysate containing native GPX4, A-673 cells were cultured with 20 nM sodium selenite to confluency over two days then harvested and washed with cold PBS. Cells were then resuspended at 10 million cells per 1 mL LCW lysis buffer (0.5% peroxide-free Triton X-100, 0.5% sodium deoxycholate salt, 150 mM NaCl, 20 mM Tris-HCl pH 7.5, 10 mM EDTA, 30 mM sodium pyrophosphate, and complete protease inhibitor cocktail), vortexed for 30 seconds, and incubated on ice for 15 minutes. After lysis, the lysates were centrifuged at 14,000×g and 4° C. for 15 minutes. The supernatants were transferred to new pre-chilled tube and the debris pellet was discarded. The protein concentration in the lysate was determined for normalization using the BCA Protein Assay Kit (Pierce).
To measure GPX4 activity, 50 μL of cell lysate was combined with 200 μL activity assay buffer (0.1% Triton X-100, 100 mM Tris-HCl pH 8.0, 10 mM sodium azide, 5 mM EDTA, 0.6 IU/mL glutathione reductase, 0.5 mM NADPH and 3 mM GSH) and compounds of interest in a clear 96-well plate and incubated at 37° C. for 45 minutes. Compounds were dissolved in DMSO. All conditions were tested in triplicate. PCOOH substrate was added to the mixture to initiate GPX4 activity just before reading the plate. The absorbance of NADPH at 340 nm was monitored kinetically over time for 25 minutes. Buffer-only controls and controls without substrate containing only the methanol vehicle were performed to assess background and baseline signal. GPX4 activity was calculated as previously reported by Stolwijk et al. 2020 and results were analyzed in GraphPad Prism 9.

SMILES | GPX4 inhibitory activity, result in words
COc1cccc(OC)c1-c1ccc2c(C(=O)NC(C)(C)COC(=O)CCl)nn(C)c2c1 [QW-487] | completely loss of the inhibitory effect
Cn1nc(C(=O)NC(C)(C)COC(=O)CCl)c2ccc(-c3ccc(C#N)cc3)cc21 [QW-445] | inactive during GPX4 inhibition
Cn1nc(C(=O)NC(C)(C)COC(=O)CCl)c2ccc(-c3ccc(C(F)(F)F)cc3)cc21 [QW-502] | inactive during GPX4 inhibition

same assay, conditions: 2.5 μM

SMILES | GPX4% inhibition at 2.5 μM
Cn1nc(C(=O)NC(C)(C)COC(=O)CCl)c2ccc(-c3ccc(NS(C)(=O)=O)cc3)cc21 [QW-618] | 18.1 ± 5.9%
Cn1nc(-n2cc(CCOC(=O)CCl)nn2)c2ccc(-c3ccc(N4CCOCC4)c(Cl)c3)cc21 [QW-756] | 41.6 ± 9.0%
COc1c(F)cc(-c2ccc3c(C(=O)NC(C)(C)COC(=O)CCl)nn(C)c3c2)cc1Cl [QW-802] | 80.1 ± 4.7%
Cn1nc(-n2cc(C(C)(C)COC(=O)CCl)nn2)c2ccc(-c3ccc(C(F)(F)F)c(Cl)c3)cc21 [QW-787] | 35.1 ± 29.1%
COc1c(Cl)cc(-c2ccc3c(C(=O)NCC(C)(C)OC(=O)CCl)nn(C)c3c2)cc1Cl [QW-778] | 30.4 ± 10.0%
CSc1ccc(-c2ccc3c(C(=O)NC(C)(C)CNC(=O)CCl)nn(C)c3c2)cc1Cl [QW-631] | 14.3 ± 16.5%
Cn1nc(C(=O)NC(COC(=O)CCl)C(F)(F)F)c2ccc(-c3ccc(N4CCOCC4)c(Cl)c3)cc21 (stereo not drawn) [QW-687] | 7.9 ± 2.3%
Cn1nc(C(=O)NC(C)(C)COC(=O)CCl)c2ccc(-c3ccc(C(=O)N4CCN(C(=O)OC(C)(C)C)CC4)cc3)cc21 [QW-619] | 42.6 ± 8.0%
Cn1nc(C(=O)N2CCC(OC(=O)CCl)C2(C)C)c2ccc(-c3ccc(N4CCOCC4)c(Cl)c3)cc21 (stereo not drawn) [QW-691] | 30.5 ± 7.4%
Cn1nc(C(=O)NC(C)(C)CNC(=O)CCl)c2ccc(-c3ccc(N4CCOCC4)c(Cl)c3)cc21 [QW-629] | 14.9 ± 16.7%
COc1c(Cl)cc(-c2ccc3c(-n4cc(C(C)(C)COC(=O)CCl)nn4)nn(C)c3c2)cc1C(F)(F)F [QW-817] | 75.3 ± 14.5%
COc1ccc(-c2ccc3c(C(=O)NC(C)(C)COC(=O)CCl)nn(C)c3c2)c(Cl)c1Cl [QW-826] | 66.2 ± 5.4%
COc1ccc(-c2ccc3c(C(=O)N4CCC(OC(=O)CCl)C4(C)C)nn(C)c3c2)cc1Cl (stereo not drawn) [QW-676] | 22.9 ± 12.1%
C=C(C)C(=O)Nc1ccc(-c2ccc3c(C(=O)NC(C)(C)COC(=O)CCl)nn(C)c3c2)cc1 [QW-620] | 63.8 ± 7.8%
COc1c(Cl)cc(-c2ccc3c(-n4cc(CCOC(=O)CCl)nn4)nn(C)c3c2)cc1Cl [QW-752] | −6.6 ± 9.7%
Cn1nc(C(=O)NC(C)(C)C(C)(C)OC(=O)CCl)c2ccc(-c3ccc(OC(F)(F)F)c(Cl)c3)cc21 [QW-759] | 18.4 ± 8.3%
C=CC(=O)OCC(C)(C)NC(=O)c1nn(C)c2cc(-c3ccc(OC)c(Cl)c3)ccc12 [QW-609] | 6.7 ± 11.9%
COC(=O)c1ccc(-c2ccc3c(C(=O)NC(C)(C)CNC(=O)CCl)nn(C)c3c2)cc1Cl [QW-632] | −4.9 ± 21.8%
Cn1nc(C(=O)N2CCC(OC(=O)CCl)C2(C)C)c2ccc(-c3ccc4c(c3)OCO4)cc21 (stereo not drawn) [QW-702] | 23.8 ± 3.7%

same assay, conditions: 2.5 μM; 4th generation

SMILES | GPX4% inhibition at 2.5 μM
CCCOc1ccc(-c2ccc3c(C(=O)NC(C)(C)COC(=O)CCl)nn(Cc4ccc(Cl)cc4)c3c2)cc1Cl [QW-846] | 91.5 ± 3.9%

same assay, conditions: 2.5 μM; generation 2

SMILES | GPX4% inhibition at 2.5 μM
Cn1nc(C(=O)NC(C)(C)CC(=O)N2CCN(C(=O)CCl)CC2)c2ccc(Br)cc21 [QW-638] | 39.0 ± 26.2%

same assay, conditions: 5 μM

SMILES | GPX4% inhibition at 5 μM
Cn1nc(C(=O)NC(C)(C)COC(=O)CCl)c2ccc(C3=CCc4ccccc43)cc21 [QW-514] | 44.8 ± 6.6%
Cn1nc(C(=O)NC(C)(C)COC(=O)CCl)c2ccc(-c3cccc([N+](=O)[O-])c3)cc21 [QW-452] | 55.0 ± 5.8%
Cn1nc(C(=O)NC(C)(C)COC(=O)CCl)c2ccc(-c3ccc(C=CCCl)cc3)cc21 [QW-575] | 35.9 ± 1.3%
COc1cccc(OC)c1-c1ccc2c(C(=O)NC(C)(C)COC(=O)CCl)nn(C)c2c1 [QW-487] | 3.3 ± 3.0%
Cn1nc(C(=O)NC(C)(C)COC(=O)CCl)c2ccc(-c3ccc(C#N)cc3)cc21 [QW-445] | 21.2 ± 5.7%
Cn1nc(C(=O)NC(C)(C)COC(=O)CCl)c2ccc(-c3ccc(C(F)(F)F)cc3)cc21 [QW-502] | −10.2 ± 6.5%
C=Cc1ccc(-c2ccc3c(C(=O)NC(C)(C)COC(=O)CCl)nn(C)c3c2)cc1 [QW-554] | 41.4 ± 4.5%
C#Cc1ccc(-c2ccc3c(C(=O)NC(C)(C)COC(=O)CCl)nn(C)c3c2)cc1 [QW-555] | 20.2 ± 0.5%
Cn1nc(C(=O)NC(C)(C)COC(=O)CCl)c2ccc(-c3ccc(N4CCOCC4)nc3)cc21 [QW-537] | 46.1 ± 2.7%
Cn1nc(C(=O)NC(C)(C)COC(=O)CCl)c2ccc(-c3cnn(Cc4ccccc4)c3)cc21 [QW-579] | 66.3 ± 3.4%
CCOc1ncc(-c2ccc3c(C(=O)NC(C)(C)COC(=O)CCl)nn(C)c3c2)cn1 [QW-536] | 46.6 ± 2.3%

same assay, conditions: 5 μM; generation 2

SMILES | GPX4% inhibition at 5 μM
COC(=O)C=CC(=O)OCC(C)(C)NC(=O)c1nn(C)c2cc(Br)ccc12 [QW-415] | −9.4 ± 8.1%
Cn1nc(C(=O)NC(C)(C)COC(=O)CBr)c2ccc(Br)cc21 [QW-416] | 25.3 ± 13.4%
CC=CC(=O)OCC(C)(C)NC(=O)c1nn(C)c2ccccc12 [QW-411] | −6.0 ± 3.1%
CC=CC(=O)OCC(C)(C)NC(=O)c1nn(C)c2cc(Br)ccc12 [QW-414] | −9.1 ± 13.4%

same assay, conditions: 20 μM; generation 2

SMILES | GPX4% inhibition at 20 (μM)
Cn1nc(C(=O)NC(C)(C)C=O)c2ccccc21 [QW-387] | 4.1 ± 4.7%
Cn1nc(C(=O)NC(C)(C)COC(=O)C(F)Cl)c2ccccc21 (stereo not drawn) [QW-374] | 1.6 ± 3.0%
Cn1nc(C(=O)N2CCN(C(=O)CCl)CC2)c2ccccc21 [QW-370] | 0.5 ± 5.4%

same assay, conditions: 200 μM; generation 1; mean ± s.d., n = 3

SMILES | GPX4% inhibition at 200 (μM)
CC(C)(COC(=O)CBr)NC(=O)c1cccs1 [QW-260] | 41.1 ± 4.6%
CC(C)(COC(=O)CCl)NC(=O)c1cc2ccc(F)cc2[nH]1 [QW-353] | 69.6 ± 6.2%
Cc1onc(C(=O)OCC(C)(C)NC(=O)c2cccs2)c1[N+](=O)[O-] [QW-262] | −0.6 ± 7.8%
COc1ccc2cc(C(=O)NC(C)(C)COC(=O)CCl)n(C)c2c1 [QW-320] | 84.3 ± 9.3%
C=CC(=O)OCC(C)(C)NC(=O)c1cc2c(OC)cccc2[nH]1 [QW-168] | −8.8 ± 10.8%
CC(C)(COC(=O)CBr)NC(=O)c1c[nH]c2ccccc12 [QW-281] | 58.7 ± 11.5%
COc1ccc2cc(C(=O)NC(C)(C)CCOC(=O)CCl)[nH]c2c1 [QW-284] | 71.0 ± 22.2%
CC(C)(COC(=O)CCl)NC(=O)c1cc2cc(F)c(F)cc2[nH]1 [QW-339] | 43.4 ± 11.5%
C=CC(=O)OCCCNC(=O)c1cc2cc(Cl)ccc2[nH]1 [QW-306] | 6.2 ± 7.5%
Cc1onc(C(=O)OCC(C)(C)NC(=O)c2c[nH]c3ccccc23)c1[N+](=O)[O-] [QW-283] | −6.6 ± 8.5%
C=CC(=O)OCC(C)(C)NC(=O)c1ccc[nH]1 [QW-292] | 7.9 ± 5.3%
CC(C)(COC(=O)CBr)NC(=O)Cc1cc2ccccc2[nH]1 [QW-266] | 48.8 ± 3.3%
CC(C)(COC(=O)CCl)NC(=O)c1ccc[nH]1 [QW-290] | 20.6 ± 9.0%

same assay, conditions: 200 μM; generation 2

SMILES | GPX4% inhibition at 200 (μM)
Cn1nc(C(=O)N2CCN(C(=O)CCl)CC2)c2ccc(Br)cc21 [QW-330] | 33.2 ± 6.8%
Cn1nc(C(=O)NC(C)(C)COC(=O)C#C[Si](C)(C)C)c2ccccc21 [QW-367] | 7.0 ± 3.9%
Cc1onc(C(=O)OCC(C)(C)NC(=O)c2n[nH]c3ccccc23)c1[N+](=O)[O-] [QW-299] | 6.3 ± 4.7%

same assay, conditions: 200 μM; mean ± s.d., n = 3

SMILES | GPX4% inhibition at 200 (μM)
O=C(c1cc2ccccc2[nH]1)n1ccnc1 [QW-064] | 31.9 ± 16.6%

same assay, conditions: concentration not given

SMILES | GPX4 inhibition rate
Cn1nc(C(=O)NC(C)(C)COC(=O)CCl)c2ccc(-c3cccc([N+](=O)[O-])c3)cc21 [QW-452] | 50%
